One compound from BindingDB's records for doi:10.1016/s0960-894x(00)00456-x (Australian National University, 2001) can be followed below.

The structures appear in SMILES notation.

One may read the IC50 as the concentration that inhibits the measured activity by half. A higher IC50 goes with lower potency.

This test concerns the target Leucine--tRNA ligase (Staphylococcus aureus). Put plainly: Compound was evaluated for its inhibitory activity against Leucyl-tRNA synthetase from staphylococcus aureus WCUH29.

Turning to `CC[C@H](C)[C@H](N)C(=O)NS(=O)(=O)CC(=O)N[C@]1(C(=O)OC)[C@@H]2CN(C)C=C(C(N)=O)[C@@H]2C[C@@H]1O` [(4aR,6S,7R,7aS)-7-[2-((2S,3S)-2-Amino-3-methyl-pentanoylsulfamoyl)-acetylamino]-4-carbamoyl-6-hydroxy-2-methyl-2,4a,5,6,7,7a-hexahydro-1H-[2]pyrindine-7-carboxylic acid methyl ester], the midpoint of inhibition, the IC50, lay at 186 µM.
